Columns and labels:
tyrosinase [1] = assay: Inhibitory action of pretreated (hydrolyzed) 3-acyloxy-4(H)-pyran-4-one on tyrosinase activity; assay type: biochemical; conditions: 1.0% solution pretreated by hydrolysis at pH 11.0 or 2.0, 70° C., 30 minutes; L-tyrosine, pH 6.8, 37° C., absorbance at 475 mμ
Method: 3-Acetoxy-4(H)-pyran-4-one was dissolved in ethanol, and the solution was adjusted to pH 6.0 with succinic acid or potassium carbonate to give a 1.0% 3-acetoxy-4(H)-pyran-4-one solution.
As the pretreatment, two samples (each 10 ml) were taken from the solution. To the two samples were added 1% Na2 CO3 and 0.01% HCl to adjust the pH to 11.0 and 2.0, respectively. The adjusted samples were hydrolyzed by heating at 70° C. with stirring for 30 minutes.
To a test tube were added 1 ml of a L-tyrosine solution (0.3 mg/ml), 1 ml of McIlvaine's buffer solution (pH 6.8) and 0.9 ml of the 3-acetoxy-4(H)-pyran-4-one solution pretreated as described above. The mixture was incubated at 37° C. for 10 minutes, and 0.1 ml of a tyrosinase solution (1 mg/ml) was added thereto and stirred thoroughly. The absorbance at 475 mμ was immediately determined by a spectrophotometer with time. On the other hand, the absorbance of water was determined similarly with time as a control.

[2] = tested on: purified bacterial lipase; assay: Enzymatic hydrolysis of acyl compounds by purified bacterial lipase (ferric chloride coloring); assay type: in vitro ADME; parameters: key: +: light wine color; ++: deep wine color; +++: dark wine color; --: no coloration; ±: indistinct coloration; conditions: 0.05M substrate emulsion, 37° C., 1 hr
Method: (§1) (1) Substrate solution: A solution containing 2% polyvinyl alcohol in M/15 phosphate buffer solution (pH 7.0) was prepared. The respective acyl compounds were added to the solution in a concentration of 0.05M and homogenized in a homogenizer to give emulsions.
(§2) (2) Enzymatic solution: 30 mg of purified bacterial lipase was dissolved in 100 ml of water. As an organic crude enzymatic solution, there was used a triturated solution of a shaved skin and pancreas of a rat weighing about 200 g.
(§3) (3) The compositions were as follows:
(§4) The composition was incubated at 37° C. for 1 hr, and the reaction was stopped by 5% metaphosphoric acid. 0.5 ml of ferric chloride reagent (0.1% aqueous solution) was added to 5 ml of the supernatant liquid after the centrifugal precipitation to observe the coloring (wine color) thereof.

[3] = tested on: triturated solution of a shaved skin of a rat; assay: Enzymatic hydrolysis of acyl compounds by rat skin homogenate (ferric chloride coloring); assay type: in vitro ADME; parameters: key: +: light wine color; ++: deep wine color; +++: dark wine color; --: no coloration; ±: indistinct coloration; conditions: 0.05M substrate emulsion, 37° C., 1 hr
Method: as §1, §2, §3, §4

[4] = tested on: triturated solution of pancreas of a rat; assay: Enzymatic hydrolysis of acyl compounds by rat pancreas homogenate (ferric chloride coloring); assay type: in vitro ADME; parameters: key: +: light wine color; ++: deep wine color; +++: dark wine color; --: no coloration; ±: indistinct coloration; conditions: 0.05M substrate emulsion, 37° C., 1 hr
Method: as §1, §2, §3, §4

tyrosinase [5] = assay: Inhibitory action on tyrosinase activity (absorbance at 475 mμ with time); assay type: biochemical; conditions: 40 μg in 0.9 ml test solution, L-tyrosine, pH 6.8, 37° C., absorbance at 475 mμ with time (FIG. 1)
Method: To a test tube were added 0.9 ml of a test solution, containing 40 μg of pyranone described above, which solution was obtained by adding the pyranone to 30% aqueous solution of propylene glycol; 1 ml of L-tyrosine solution (0.3 mg/ml); and 1 ml McIlvaine's buffer solution (pH 6.8), and the mixture was incubated at 37° C. for 10 minutes. 0.1 ml of a tyrosinase solution (1 mg/ml) was then added to the incubated mixture and stirred thoroughly. The absorbance at 475 mμ of the mixture was immediately measured by a spectrophotometer with time. As a control, the absorbance at 475 mμ of a 30% aqueous solution of propylene glycol instead of the above test solution was measured with time.
FIG. 1 is a graph to illustrate the effect described above, and agreement of the line showing the absorbance in the case of 3-hydroxy-4(H)-pyran-4-one with the abscissa (time) of the graph clearly indicates the remarkable effect of the 3-hydroxy-4(H)-pyran-4-one.

melasma on human face = assay: Action on the melanization in the human skin (melasma, ointment application); assay type: in vivo; conditions: 3 times a day, 3 months, 10 volunteers
Description: Action of 3-hydroxy-4(H)-pyran-4-one and acyl derivatives thereof on the melanization in the human skin.
The test substance was mixed and dissolved in a hydrophilic ointment according to the Japanese Pharmacopoeia and applied to a melasma on one side of each human face 3 times a day. In the control, only the hydrophilic ointment was applied to a melasma on the other side of the human face in the similar way.

[6] = Germicidal action and antibiotic-like action
Reducing action = assay type: physicochemical

Row | Reducing action (Reducing action) | SMILES | Inhibitory action on tyrosinase activity (tyrosinase [1]) | Ratio of formation of 3-hydroxy-4(H)--pyran-4-one, Bacterial lipase (purified) [2] | Ratio of formation of 3-hydroxy-4(H)--pyran-4-one, Homogenate Rat's skin [3] | Ratio of formation of 3-hydroxy-4(H)--pyran-4-one, Homogenate Rat's pancreas [4] | Inhibitory action on tyrosinase activity (tyrosinase [5]) | Results: Effective (number of volunteers) (melasma on human face; 0.5% in hydrophilic ointment) | Results: Ineffective (number of volunteers) (melasma on human face; 0.5% in hydrophilic ointment) | Results: Remarkably effective (number of volunteers) (melasma on human face; 0.5% in hydrophilic ointment) | Results: Effective (number of volunteers) (melasma on human face; 1% in hydrophilic ointment) | Results: Ineffective (number of volunteers) (melasma on human face; 1% in hydrophilic ointment) | Results: Remarkably effective (number of volunteers) (melasma on human face; 1% in hydrophilic ointment) | Mutagenicity (Mutagenicity) | Germicidal action and antibiotic-like action [6] | Results: Effective (number of volunteers) (melasma on human face; 2% in hydrophilic ointment) | Results: Ineffective (number of volunteers) (melasma on human face; 2% in hydrophilic ointment) | Results: Remarkably effective (number of volunteers) (melasma on human face; 2% in hydrophilic ointment)
1 |  | CC(=O)Oc1coccc1=O [3-acetoxy-4(H)-pyran-4-one, 3-Acetoxy-4(H)-pyran-4-one] | Results similar to those of the 3-hydroxy-4(H)-pyran-4-one | + | +++ | +++ |  |  |  |  |  |  |  |  |  |  |  | 
2 | weak reducing action | O=c1ccocc1O [3-hydroxy-4(H)-pyran-4-one] |  |  |  |  | stronger inhibitory action on the tyrosinase activity than 3-hydroxy-chromone (chromonol) and kojic acid, and a far stronger inhibitory action than vitamin C | 3 | 2 | 5 | 2 | 0 | 8 | no mutagenicity | deficient in germicidal action and antibiotic-like action |  |  | 
3 |  | CCCCCCCCCCCCCCCC(=O)Oc1coccc1=O [3-palmitoyloxy-4(H)--pyran-4-one, 3-palmitoyloxy-4(H)-pyran-4-one] |  | ± | ++ | ++ |  | 2 | 3 | 5 | 4 | 0 | 6 |  |  | 2 | 0 | 8
